ChEMBL document CHEMBL1201862, “PubChem BioAssay data set” (2004)
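All cell lines were grown in 96-well plates and treated with compound for 48 hours. GI50: concentration for 50% inhibition of growth.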 Activity calls are given as the source filed them. No stated cut-off is given here; in the data, active = GI50 up to about 1.1 µM and inactive = higher.

Tests used:
Assay in all cases: DTP human tumour cell line panel, 48 h
RXF 393 = tested on: RXF 393
DU-145 = tested on: DU-145
SNB-75 = tested on: SNB-75
COLO 205 = tested on: COLO 205
HOP-62 = tested on: HOP-62
U-251 = tested on: U-251
K562 = tested on: K562
LOX IMVI = tested on: LOX IMVI
SNB-19 = tested on: SNB-19
SF-539 = tested on: SF-539
MCF7 = tested on: MCF7
HT-29 = tested on: HT-29
RPMI-8226 = tested on: RPMI-8226
NCI-H522 = tested on: NCI-H522
HCT-15 = tested on: HCT-15
SW-620 = tested on: SW-620
786-0 = tested on: 786-0
OVCAR-3 = tested on: OVCAR-3
CCRF-CEM = tested on: CCRF-CEM
HL-60 = tested on: HL-60

Structure (SMILES)	GI50 (RXF 393)	GI50 (DU-145)	GI50 (SNB-75)	GI50 (COLO 205)	GI50 (HOP-62)	GI50 (U-251)	GI50 (K562)	GI50 (LOX IMVI)	GI50 (SNB-19)	GI50 (SF-539)	GI50 (MCF7)	GI50 (HT-29)	GI50 (RPMI-8226)	GI50 (NCI-H522)	GI50 (HCT-15)	GI50 (SW-620)	GI50 (786-0)	GI50 (OVCAR-3)	GI50 (CCRF-CEM)	GI50 (HL-60)
O=C(O)[C@@H]1[C@H](C(=O)O)[C@H](C(=O)O)C[C@@H]1C(=O)O	> 100 µM (inactive)	> 100 µM (inactive)	> 100 µM (inactive)	> 100 µM (inactive)	> 100 µM (inactive)	> 100 µM (inactive)	> 100 µM (inactive)	> 100 µM (inactive)	> 100 µM (inactive)	> 100 µM (inactive)	> 100 µM (inactive)	> 100 µM (inactive)	> 100 µM (inactive)	> 100 µM (inactive)	> 100 µM	> 100 µM (inactive)	> 100 µM (inactive)	> 100 µM (inactive)	–	–
ON(CCc1ccccn1)Cc1ccccc1	> 100 µM (inactive)	> 100 µM (inactive)	> 100 µM (inactive)	> 100 µM (inactive)	> 100 µM (inactive)	> 100 µM (inactive)	31.7 µM (inactive)	> 100 µM (inactive)	> 100 µM (inactive)	> 100 µM (inactive)	> 100 µM (inactive)	> 100 µM (inactive)	> 100 µM (inactive)	> 100 µM (inactive)	> 100 µM	> 100 µM (inactive)	> 100 µM (inactive)	> 100 µM (inactive)	–	–
COc1ccc(CNc2nc3cc(C(F)(F)F)ccc3nc2C(=O)O)cc1	–	26.7 µM (inactive)	38 µM (inactive)	22.5 µM (inactive)	21.4 µM (inactive)	28.6 µM (inactive)	24.7 µM (inactive)	19.4 µM (inactive)	31.2 µM (inactive)	23 µM (inactive)	25 µM (inactive)	24 µM (inactive)	39.3 µM (inactive)	–	22.6 µM	31.1 µM (inactive)	23.1 µM (inactive)	15.3 µM (inactive)	27.1 µM (inactive)	–
NNC(=S)N/N=C(\C(=O)Nc1cccc(O)c1)C1C(=O)NC(=S)NC1=O	> 100 µM (inactive)	–	> 100 µM (inactive)	–	> 100 µM (inactive)	> 100 µM (inactive)	> 100 µM (inactive)	> 100 µM (inactive)	> 100 µM (inactive)	> 100 µM (inactive)	> 100 µM (inactive)	> 100 µM (inactive)	> 100 µM (inactive)	> 100 µM (inactive)	> 100 µM	> 100 µM (inactive)	> 100 µM (inactive)	> 100 µM (inactive)	> 100 µM (inactive)	> 100 µM (inactive)
Oc1ccc2ccccc2c1OCc1nnc(CCCCCCCCc2nnc(COc3c(O)ccc4ccccc34)o2)o1	> 100 µM (inactive)	> 100 µM (inactive)	> 100 µM (inactive)	> 100 µM (inactive)	–	35.7 µM (inactive)	> 100 µM (inactive)	–	> 100 µM (inactive)	–	59.2 µM (inactive)	> 100 µM (inactive)	> 100 µM (inactive)	> 100 µM (inactive)	> 100 µM	> 100 µM (inactive)	83 µM (inactive)	–	–	–
CC(ON1[C@](C)(c2ccccc2)CC[C@@]1(C)c1ccccc1)c1ccccc1 (stereo not given in full)	20.4 µM (inactive)	34.8 µM (inactive)	25.9 µM (inactive)	43.4 µM (inactive)	83.4 µM (inactive)	31 µM (inactive)	33 µM (inactive)	31.2 µM (inactive)	25.5 µM (inactive)	> 100 µM (inactive)	–	31.2 µM (inactive)	22.4 µM (inactive)	15.3 µM (inactive)	> 100 µM	37.9 µM (inactive)	52.4 µM (inactive)	38.4 µM (inactive)	22.7 µM (inactive)	23.6 µM (inactive)
O=P(c1ccccc1)(c1ccccc1)C(NCc1ccccc1)c1ccc(F)cc1 (stereo not given)	13.4 µM (inactive)	20 µM (inactive)	23.8 µM (inactive)	14.7 µM (inactive)	21.6 µM (inactive)	15.6 µM (inactive)	18.7 µM (inactive)	14.2 µM (inactive)	17.9 µM (inactive)	17.7 µM (inactive)	–	13.2 µM (inactive)	25.9 µM (inactive)	11.5 µM (inactive)	13.2 µM	18.5 µM (inactive)	18.5 µM (inactive)	14.2 µM (inactive)	16.9 µM (inactive)	17.5 µM (inactive)
CCC1(CN(C)C)CC/C(=C\c2ccc3c(c2)OCO3)C1=O (stereo not given)	> 100 µM (inactive)	–	> 100 µM (inactive)	> 100 µM (inactive)	> 100 µM (inactive)	> 100 µM (inactive)	65.9 µM (inactive)	> 100 µM (inactive)	> 100 µM (inactive)	> 100 µM (inactive)	–	65.2 µM (inactive)	40.7 µM (inactive)	49.9 µM (inactive)	> 100 µM	> 100 µM (inactive)	> 100 µM (inactive)	> 100 µM (inactive)	48.6 µM (inactive)	11.4 µM (inactive)
NC(=O)C(=O)N/N=C(\CC1(O)C(=O)Nc2ccccc21)c1ccc2ccccc2c1 (stereo not given)	24.8 µM (inactive)	–	40.6 µM (inactive)	22.8 µM (inactive)	51.2 µM (inactive)	25.9 µM (inactive)	23.1 µM (inactive)	30.3 µM (inactive)	22.9 µM (inactive)	48.9 µM (inactive)	–	34.4 µM (inactive)	34.4 µM (inactive)	18.7 µM (inactive)	24.5 µM	33.5 µM (inactive)	36.5 µM (inactive)	25.8 µM (inactive)	20.3 µM (inactive)	16.6 µM (inactive)
O=C(Nc1ccccc1SC(/C=C/NNC1=NN=C(c2ccccc2)C(c2ccccc2)N1)c1ccccc1)c1ccc(Cl)cc1Cl (stereo not given)	40.7 µM (inactive)	–	52.4 µM (inactive)	> 100 µM (inactive)	27.3 µM (inactive)	25.6 µM (inactive)	60.1 µM (inactive)	36.2 µM (inactive)	80 µM (inactive)	23.3 µM (inactive)	–	> 100 µM (inactive)	58.6 µM (inactive)	> 100 µM (inactive)	36 µM	> 100 µM (inactive)	37.9 µM (inactive)	44.5 µM (inactive)	48.8 µM (inactive)	35.6 µM (inactive)
COC(=O)c1ccc(/C=C/S(=O)(=O)c2ccccc2)cc1	> 100 µM (inactive)	–	67.6 µM (inactive)	> 100 µM (inactive)	> 100 µM (inactive)	> 100 µM (inactive)	> 100 µM (inactive)	> 100 µM (inactive)	> 100 µM (inactive)	> 100 µM (inactive)	–	> 100 µM (inactive)	> 100 µM (inactive)	83.9 µM (inactive)	> 100 µM	> 100 µM (inactive)	> 100 µM (inactive)	> 100 µM (inactive)	> 100 µM (inactive)	> 100 µM (inactive)
CCOC(=O)CCC(NC(=O)c1ccc(NCc2ccc3nc(-c4ccccc4)c(Cl)nc3c2)cc1)C(=O)OCC (stereo not given)	48.9 µM (inactive)	–	16.9 µM (inactive)	20.5 µM (inactive)	> 100 µM (inactive)	69.7 µM (inactive)	6.19 µM (inactive)	26.1 µM (inactive)	97.7 µM (inactive)	35.8 µM (inactive)	–	> 100 µM (inactive)	18.2 µM (inactive)	19.5 µM (inactive)	64.1 µM	> 100 µM (inactive)	80.7 µM (inactive)	17.2 µM (inactive)	25.6 µM (inactive)	17.4 µM (inactive)
CCOC(=O)C1=COC(C)(C)CC1=O	> 100 µM (inactive)	> 100 µM (inactive)	> 100 µM (inactive)	> 100 µM (inactive)	> 100 µM (inactive)	> 100 µM (inactive)	> 100 µM (inactive)	–	> 100 µM (inactive)	> 100 µM (inactive)	> 100 µM (inactive)	> 100 µM (inactive)	> 100 µM (inactive)	> 100 µM (inactive)	> 100 µM	> 100 µM (inactive)	> 100 µM (inactive)	> 100 µM (inactive)	–	–
CC(C)C1=CC2=C(C(=O)C1=O)C13CCCC(C)(C)C1CC2OC3=O (stereo not given)	–	18.8 µM (inactive)	25.7 µM (inactive)	17.2 µM (inactive)	–	23 µM (inactive)	3.64 µM (inactive)	20.1 µM (inactive)	42.9 µM (inactive)	20.7 µM (inactive)	22.3 µM (inactive)	12.5 µM (inactive)	8.18 µM (inactive)	11.3 µM (inactive)	12.8 µM	14.5 µM (inactive)	17.9 µM (inactive)	16.7 µM (inactive)	3.97 µM (inactive)	15.1 µM (inactive)
C=C(C)OCOCCOC	–	> 100 µM (inactive)	> 100 µM (inactive)	> 100 µM (inactive)	> 100 µM (inactive)	> 100 µM (inactive)	> 100 µM (inactive)	> 100 µM (inactive)	> 100 µM (inactive)	> 100 µM (inactive)	> 100 µM (inactive)	> 100 µM (inactive)	> 100 µM (inactive)	> 100 µM (inactive)	> 100 µM	> 100 µM (inactive)	> 100 µM (inactive)	> 100 µM (inactive)	> 100 µM (inactive)	> 100 µM (inactive)
NC(CCCC(N)P(=O)(O)c1ccccc1)P(=O)(O)c1ccccc1 (stereo not given)	> 261 µM (inactive)	–	> 261 µM (inactive)	> 261 µM (inactive)	> 261 µM (inactive)	> 261 µM (inactive)	> 261 µM (inactive)	> 261 µM (inactive)	> 261 µM (inactive)	> 261 µM (inactive)	–	> 261 µM (inactive)	> 261 µM (inactive)	> 261 µM (inactive)	> 261 µM	> 261 µM (inactive)	> 261 µM (inactive)	> 261 µM (inactive)	> 261 µM (inactive)	> 261 µM (inactive)
